Data: EP1206482B1, “METHOD FOR COUPLING, IN SOLUTION, A PEPTIDE WITH AT LEAST ANOTHER COMPOUND AND USES THEREOF” (INSTITUT PASTEUR DE LILLE, priority 1999, dated 2001)
Starred links: 1 amine or outer side, 2 acyl side, 3 side chain; linkers in the order of their positions; H or OH if unused. Non-standard residues stand in square brackets, D forms with d. No end group written: not given here. Hydrazinoacetyl = O=C(CNN[*:1])[*:2]

Tested on: molécules de classe II du CMH
Experiment: Quantification of surface expression of MHC class II molecules by flow cytometry (anti-HLA DR-FITC) after 24 h stimulation of cells with peptides or lipopeptides
Format: cell-based, humaine
Settings: for Moyenne: mean fluorescence of treated COLO 205 cells; for Rapport: ratio of mean fluorescence of treated to untreated COLO 205 cells
Procedure: Les cellules COLO 205 (lignée cellulaire humaine issue d'un carcinome de colon) proviennent de la banque de cellules ATCC (American Type Culture Collection). Elles sont cultivées en milieu RPMI 1640 (Gibco BRL, Courbevoie, France) avec 10% de sérum de veau foetal (SVF) et 5 mM de pyruvate de sodium, et incubées à 37°C en présence de 5% de CO2. Les cellules sont stimulées pendant 24 heures avec différentes concentrations (35, 50 ou 65 µM) de peptides ou de lipopeptides. Les cellules sont ensuite marquées pendant 1 heure à 4°C avec 10 µl d'anticorps de souris anti-HLA DR de classe-II, couplé à la FITC (clone TAL, 1B5, Cymbus Biotechnology Ltd, Hants, Grande-Bretagne) dans 10% de SVF/PBS, puis lavées 3 fois par du SVF/PBS.
L'expression de surface des molécules de classe II du CMH est analysée par cytométrie de flux sur un cytomètre Coulter EPICS II, à raison de 10 000 évènements par échantillon. L'intensité de fluorescence observée est directement proportionnelle à la quantité de molécules de classe II du CMH présente à la surface des cellules. La moyenne de fluorescence observée pour les cellules non traitées et pour les cellules traitées (colonne « Moyenne» dans le tableau II) permet de calculer un rapport entre la moyenne de fluorescence des cellules traitées et la moyenne de fluorescence des cellules non traitées (colonne « Rapport » dans le tableau II).

Substance	Moyenne (35 µM)	Moyenne (50 µM)	Moyenne (65 µM)	Rapport (35 µM)	Rapport (50 µM)	Rapport (65 µM)
palm-NH-NH-CH2CO-PSRENQNAVKIQKLSVVLRREQKHR-VERLAFRNQSLPF-NH2 [peptide 23Sc]	4,72	4,51	5,55	9,16	6,15	7,5
H2N-NH-CH2CO-PSRENQNAVKIQKLSVVLRREQKHRVERLAFRNQSLPF-NH2 ([Hydrazinoacetyl]PSRENQNAVKIQKLSVVLRREQKHRVERLAFRNQSLPF-NH2; N-terminus assumed; SMILES CC[C@H](C)[C@H](NC(=O)[C@H](CCCCN)NC(=O)[C@@H](NC(=O)[C@H](C)NC(=O)[C@H](CC(N)=O)NC(=O)[C@H](CCC(N)=O)NC(=O)[C@H](CC(N)=O)NC(=O)[C@H](CCC(=O)O)NC(=O)[C@H](CCCNC(=N)N)NC(=O)[C@H](CO)NC(=O)[C@@H]1CCCN1C(=O)CNN)C(C)C)C(=O)N[C@@H](CCC(N)=O)C(=O)N[C@@H](CCCCN)C(=O)N[C@@H](CC(C)C)C(=O)N[C@@H](CO)C(=O)N[C@H](C(=O)N[C@H](C(=O)N[C@@H](CC(C)C)C(=O)N[C@@H](CCCNC(=N)N)C(=O)N[C@@H](CCCNC(=N)N)C(=O)N[C@@H](CCC(=O)O)C(=O)N[C@@H](CCC(N)=O)C(=O)N[C@@H](CCCCN)C(=O)N[C@@H](Cc1c[nH]cn1)C(=O)N[C@@H](CCCNC(=N)N)C(=O)N[C@H](C(=O)N[C@@H](CCC(=O)O)C(=O)N[C@@H](CCCNC(=N)N)C(=O)N[C@@H](CC(C)C)C(=O)N[C@@H](C)C(=O)N[C@@H](Cc1ccccc1)C(=O)N[C@@H](CCCNC(=N)N)C(=O)N[C@@H](CC(N)=O)C(=O)N[C@@H](CCC(N)=O)C(=O)N[C@@H](CO)C(=O)N[C@@H](CC(C)C)C(=O)N1CCC[C@H]1C(=O)N[C@@H](Cc1ccccc1)C(N)=O)C(C)C)C(C)C)C(C)C) [peptide 22Sc]	1,36	1,60	1,67	1,8	2,18	2,27
